Measured values from patent US12318386B2, “Combination of XPO1 inhibitors and second agents for the treatment of prostate cancer” (Karyopharm Therapeutics Inc., priority 2018, dated 2025).

Columns and labels:
[1] = test system: Relapsed/Refractory Metastatic Castration Resistant Prostate Cancer (mCRPC); assay: Clinical trial in relapsed/refractory mCRPC, KPT-8602 alone and with abiraterone; format: in vivo, human
Experimental: • 1. Histologically confirmed adenocarcinoma of the prostate with archival tumor tissue available for molecular analyses. • 2. Surgically or medically castrated, with testosterone levels of <50 ng/dL (<2.0 nM). • 3. Documented mCRPC progression as assessed by the Investigator with one of the following: • a. Prostate specific antigen (PSA) progression defined by a minimum of 3 rising PSA levels (at approximately Day −30 and approximately Day −45) with an interval of >1 week between each determination. The PSA values at the Screening visit should be >2 μg/L (>2 ng/mL); patients on systemic glucocorticoids for control of symptoms must have documented PSA progression by Prostate Cancer Working Group 3 (PCWG3) while on systemic glucocorticoids prior to commencing C1D1 of treatment. • b. Radiographic progression of soft tissue disease by modified RECIST criteria 1.1 or of bone metastasis with 2 or more documented new bone lesions on a bone scan with or without PSA progression. • 4. Initial response (per modified PCWG3 Guidelines) to second generation anti-hormonal therapy (examples: abiraterone, enzalutamide, TAK 700), but later relapsed. Disease relapse would be defined as progressive disease at the time of entry per inclusion criterion 3. • 5. Zero to 2 previous taxane-based chemotherapy regimens. • 6. At least 2 weeks from completion of any radiotherapy including a single fraction of radiotherapy for the purposes of palliation (confined to one field) is permitted. • 7. Patients should not be transfusion dependent. • 8. Albumin>2.5 g/dL. • 9. Adequate hematopoietic function: ANC≥1000/mm^3, hemoglobin (Hb)≥9.0 g/dL, and platelet count≥100,000/mm^3. • 10. Eastern Cooperative Oncology Group (ECOG) performance status of ≤1. • 11. Life expectancy of ≥4 months. Additional Criteria for Combination Therapy Patients (KPT-8602 and Abiraterone) • 12. Patients currently receiving treatment with abiraterone and appropriate to continue in the opinion of the Investigator (some patients may be progressing). Patients must also have been on and continue on a stable dose of corticosteroids (prednisone or dexamethasone) for 30 days prior to C1D1. B. Patient Characteristics and Demographics
Patients treated with KPT-8602 alone received oral KPT-8602 for 5 days per week (QDx5) at dose levels of 20 and 30 mg. Patients treated with KPT-8602 and abiraterone received oral KPT-8602 for 5 days per week (QDx5) at dose levels of 20 and 30 mg and the dose and schedule of abiraterone and corticosteroids that they were receiving at the time of enrollment. For example, a typical dose of ZYTIGA (abiraterone acetate) is 1000 mg orally once daily with prednisone 5 mg orally twice daily. A full cycle was 28 days long. A representative cycle of KPT-8602 dosing is oral administration 5 out of 7 consecutive days in a week for a 28-day cycle (e.g., Days 1-5, 8-12, 15-19 and 22-26 of each 28-day cycle).
Responses were assessed using RECIST v 1.1 criteria once every 28-day cycle. PR: Partial Response, SD: Stable Disease, PD: Progressive Disease, DCR: Disease Control Rate. 7 Non-evaluable patients: 2AE, 2 patient decision, 2 physician decision, 1 patient non-compliant.
All patients had their disease assessed per modified PCWG3 Guidelines including RECIST v1.1 (see below) by the following tests at pre-determined the time points. • PSA: Disease specific clinical lab assessment • Testosterone: Disease specific clinical lab assessment • Bone scan and CT (or MRI) scan of the abdomen and pelvis (RECIST v.1.1): Patients will receive a bone scan to monitor and assess bone disease progression and CT (or MRI) of the abdomen and pelvis (and chest, if indicated) to monitor and assess soft tissue disease progression per PCWG3 including RECIST v.1.1. […]

ARv = assay: Western blot of ARv protein levels; format: cell-based; conditions: 22Rv1 cells, 250 nM, 72 hours
Experimental: (§1) Total proteins were subjected to 10 or 14% SDS-PAGE, and electrophoretically transferred to nitrocellulose membrane. The membranes were incubated with specific primary antibodies, and subsequently incubated with secondary antibody conjugated with peroxidase (Bio-rad, Hercules, CA). The signal was detected using the chemiluminescent detection system (PIERCE).

AR [2] = assay: AR mRNA expression by real-time RT-qPCR in 22Rv1 cells; format: cell-based; conditions: 200 nM, 48 hours, vs control before treatment
Experimental: (§2) Prostate cancer cell line 22Rv1 was treated with KPT-8602 and the effect of the treatment on the expression of AR and AR splice variant AR-v7 was determined. 22Rv1 cells were treated with 200 nM KPT-8602 for 48 hours and the mRNA expression levels of AR and AR-v7 before (control) and after treatment were measured by real-time RT-qPCR using High Capacity cDNA Reverse Transcription Kit and SYBR Green Master Mixture from Applied Biosystems (Waltham, MA).

[3] = test system: 22Rv1 prostate cancer xenograft; assay: 22Rv1 prostate cancer xenograft model in CB.17 SCID mice; format: in vivo; conditions: 15 mg/kg, QDx5/week
Experimental: The effect of KPT-8602 (15 mg/kg, QDx5/week) in a 22Rv1 prostate cancer xenograft model in CB.17 SCID mice was evaluated. Mouse weights and tumor size were monitored three times a week. Each mouse was euthanized at the end of study (Day 35) or when tumor volume reached 1000 mm^3, whichever comes first.

AR-v7 = AR-v7 mRNA expression by real-time RT-qPCR in 22Rv1 cells; format: cell-based; conditions: 200 nM, 48 hours, vs control before treatment
Experimental: as §2

AR [4] = assay: Western blot of AR protein levels; format: cell-based; conditions: 22Rv1 cells, 250 nM, 72 hours
Experimental: as §1

[5] = test system: xenograft samples derived from 22Rv1 cells; assay: Immunohistochemistry of 22Rv1 xenograft samples; format: in vivo, mice
From the text: Increased nuclear staining of tumor suppressor proteins Rb, p21, p53, APC and SMAD4 were also observed in samples treated with KPT-8602.
A tissue microarray (TMA) was constructed with tumor samples collected from 22Rv1 mouse prostate cancer cell. Paraffin sections of the TMA were processed ans stained with antibodies using a Biogenex 16000 automated stainer. Digital images of the slides were obtained through an Aperio AT Turbo scanner 20×. The following antibodies were used for immunohistochemistry staining: Cleaved Caspase 3 (Cell Singaling Technology, 9661), p21 (Cell Signaling Technology, 2947), APC (Abcam, ab15270), Ki67 (Cell Marque, 275R-18), Rb (Abcam, ab181616, p53 (Santa Cruz, sc-126), and SMAD4 (Santa Cruz, sc-7966).

[6] = RECIST v1.1, evaluable patients, KPT-8602 20 and 30 mg QDx5

For `NC(=O)/C(=C/n1cnc(-c2cc(C(F)(F)F)cc(C(F)(F)F)c2)n1)c1cncnc1` [KPT-8602], the “median PFS” value ([1]; Kaplan-Meier analysis, evaluable patients) was 5.9 months, the “DCR (PR + SD) SD ≥ 8 weeks, % of patients” value [1, 6] was 82% and the “DCR (PR + SD) SD ≥ 8 weeks, number of patients” value [1, 6] was 9. The “DCR (PR + SD) SD ≥ 16 weeks, % of patients” value [1, 6] was 55%, the “DCR (PR + SD) SD ≥ 16 weeks, number of patients” value [1, 6] was 6 and the “PD (Progressive Disease), % of patients” value [1, 6] was “(18%)”. For the same compound, the “PD (Progressive Disease), number of patients” value [1, 6] was 2, the “PR (Partial Response), % of patients” value [1, 6] was “(9%)” and the “PR (Partial Response), number of patients” value [1, 6] was 1. For the same compound, the “Median ToT (Time on Treatment)” value ([1]; evaluable patients, 20 mg KPT-8602) was 96 days, the “Median ToT (Time on Treatment)” value ([1]; evaluable patients, 30 mg KPT-8602) was 134 days and the “Median ToT (Time on Treatment)” value ([1]; evaluable patients, all doses (20 and 30 mg KPT-8602)) was 96 days. The “protein levels of ARv” value (ARv) was “significantly decreased”, the “mRNA expression of AR” value (AR [2]) was “significantly inhibited” and the survival [3] was “prolongs”. The tumor growth [3] was “significantly inhibits”, the “median OS (overall survival)” value ([3]; Kaplan-Meier, end of study Day 35, vehicle 20 days) was “undefined” and the “% TGI (tumor growth inhibition) on Day 16” value ([3]; compared to vehicle) was 87%. For the same compound, the “mRNA expression of AR-v7” value (AR-v7) was “significantly inhibited”, the “protein levels of AR” value (AR [4]) was “significantly decreased” and the “nuclear staining of tumor suppressor protein APC” value [5] was “Increased”. The “nuclear staining of tumor suppressor protein Rb” value [5] was “Increased”, the “nuclear staining of tumor suppressor protein SMAD4” value [5] was “Increased” and the “nuclear staining of tumor suppressor protein p21” value [5] was “Increased”. For the same compound, the “nuclear staining of tumor suppressor protein p53” value [5] was “Increased”, the “apoptotic molecule (Cleaved Caspase 3)” value ([5]; compared to vehicle controls) was “increased” and the “cell proliferation marker (Ki67)” value ([5]; compared to vehicle controls) was “decreased”.
